The supplement of paper PMC10721915
± gives the standard deviation of the averaged measurements.

Experiments:
Assay in all cases: relative cell growth vs untreated control (GI, NCI-DTP normalisation with time-zero) (fraction of control growth); higher = more growth / less inhibition
Details in all cases: treatment time: 120 h
[1] = tested on: NCIH460
Description: (§1)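 Cancer cell lines in 96-well plates were treated 48 h after seeding with M4076 (ATM inhibitor) and berzosertib (ATR inhibitor), alone or mixed, in 4-fold dilutions for 120 h. Protein was read by sulforhodamine B staining, background-subtracted and normalised NCI-DTP style to untreated control growth. Rows with one concentration equal to 0 are monotherapy.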

[2] = tested on: HEPG2
Description: as §1

[3] = tested on: ASPC1
Description: as §1

[4] = tested on: IGROV1
Description: as §1

[5] = tested on: U87MG
Description: as §1

[6] = tested on: U2OS
Description: as §1

[7] = tested on: RAMOS
Description: as §1

[8] = tested on: MV411
Description: as §1

[9] = tested on: MDAMB435
Description: as §1

[10] = tested on: COLO205
Description: as §1

COc1cc2ncc3c(c2cc1-c1cn(C)nc1C)n(-c1c(F)cncc1OC)c(=O)n3C [M4076] + CNCc1ccc(-c2cc(-c3nc(-c4ccc(S(=O)(=O)C(C)C)cc4)cnc3N)on2)cc1 [berzosertib]
relative cell growth
Details	[1]	[2]	[3]	[4]	[5]	[6]	[7]	[8]	[9]	[10]
concentration of first compound 0.0195 µM, concentration of partner 0 M	1.14 ± 0.19	1.41 ± 0.32	1.2 ± 0.16	1.27 ± 0.21	1.1 ± 0.11	1.1 ± 0.054	1.04 ± 0.031	1.23 ± 0.16	1.09 ± 0.14	1.18 ± 0.19
concentration of first compound 0.0195 µM, concentration of partner 0.2 µM	0.607	0.0154	0.322	0.543	0.891	0.876	1.14	1.18	1.01	0.641
concentration of first compound 0.0781 µM, concentration of partner 0 M	1.16 ± 0.2	1.4 ± 0.32	1.08 ± 0.15	1.36 ± 0.22	1.12 ± 0.11	1.09 ± 0.053	1.12 ± 0.034	1.28 ± 0.17	1.09 ± 0.14	1.15 ± 0.18
concentration of first compound 0.0781 µM, concentration of partner 0.2 µM	0.678	0.000629	0.194	0.527	0.839	0.865	1.17	1.09	1.05	0.668
concentration of first compound 0.313 µM, concentration of partner 0 M	1.14 ± 0.19	1.23 ± 0.28	1.2 ± 0.16	1.18 ± 0.19	1.09 ± 0.11	0.972 ± 0.048	1.01 ± 0.03	1.24 ± 0.16	1.04 ± 0.13	1.12 ± 0.18
concentration of first compound 0.313 µM, concentration of partner 0.2 µM	0.354	-0.027	0.0757	0.376	0.682	0.504	1.12	0.887	0.622	0.373
concentration of first compound 1 µM, concentration of partner 0 M	0.972	0.829	0.84	0.9	0.966	0.916	0.888	0.903	0.988	0.959
concentration of first compound 1 µM, concentration of partner 0.0195 µM	0.969	0.596	0.803	0.964	0.944	0.798	0.918	1.22	1.01	0.916
concentration of first compound 1 µM, concentration of partner 0.0781 µM	0.79	0.0729	0.418	0.604	0.82	0.611	0.945	1.18	0.701	0.37
concentration of first compound 1 µM, concentration of partner 0.313 µM	0.0691	-0.0203	-0.0794	0.0905	0.343	0.191	0.751	0.312	0.14	0.105
concentration of first compound 1 µM, concentration of partner 1.25 µM	-0.00904	-0.023	-0.118	-0.0208	0.0996	-0.111	0.0625	-0.0158	-0.00922	0.0405
concentration of first compound 1 µM, concentration of partner 5 µM	-0.0222	-0.0325	-0.115	-0.0274	0.134	-0.131	0.0153	-0.0221	-0.0254	-0.0244
concentration of first compound 1.25 µM, concentration of partner 0 M	1.11 ± 0.19	1.16 ± 0.26	0.943 ± 0.13	1.02 ± 0.17	1.01 ± 0.1	0.935 ± 0.046	0.914 ± 0.028	1.09 ± 0.14	1.03 ± 0.13	1.02 ± 0.16
concentration of first compound 1.25 µM, concentration of partner 0.2 µM	0.199	-0.0218	0.0458	0.327	0.505	0.312	1.09	0.746	0.411	0.208
concentration of first compound 5 µM, concentration of partner 0 M	1.06 ± 0.18	0.843 ± 0.19	0.675 ± 0.092	0.48 ± 0.079	0.853 ± 0.085	0.852 ± 0.042	0.778 ± 0.023	0.708 ± 0.092	0.92 ± 0.12	0.892 ± 0.14
concentration of first compound 5 µM, concentration of partner 0.2 µM	0.203	-0.0276	0.0314	0.0986	0.381	0.229	0.915	0.603	0.185	0.172
